Assay results taken from PMC11578313, “Miniaturized Modular Click Chemistry‐enabled Rapid Discovery of Unique SARS‐CoV‐2 M^pro Inhibitors With Robust Potency and Drug‐like Profile” (Advanced Science, 2024).
Like-named read-outs stand apart in the source and are kept apart here.

Assay: In vivo pharmacokinetic study in male ICR mice (compound alone)
Settings: male, ICR, mouse, plasma
Description: The pharmacokinetics profile of the newly developed antiviral compound C5N17B was subsequently evaluated in male ICR mice that were free from specific pathogens, aiming to assess its potential for therapeutic application in vivo.
A total of six male ICR mice were randomly assigned to two groups. One group received the test drug intravenously at a dosage of 2 mg kg^−1, while the other group received oral administration at a dosage of 10 mg kg^−1. To prepare solutions of C5N17B, 2.39 mg compound was dissolved in a mixture of 0.119 mL DMSO, 0.238 mL polyoxyl 15 hydroxystearate (Solutol), and 2.027 mL normal saline. For the intravenous group, blood samples were collected from the sinus jugular into heparinized centrifugation tubes at various time points after dosing: 5, 15, 30 min, 1, 2, 4, 6, 8, and 24 h. As for the oral administration group, blood samples were collected at similar time points (0.05 mL of blood each time). The collected blood samples were then centrifuged at a speed of 4000 rpm for 10 min to separate plasma, which was subsequently stored at −20 °C until further LC‐MS analysis to determine the concentration of C5N17B. Briefly, the analysis involved adding 20 µL of plasma, sample calibration standard, quality control, and dilution quality control, and blank samples into respective wells on a 96‐well plate. Then each sample was quenched with 200 µL of internal standard (the blank sample was quenched with 200 µL of ACN: MeOH = 1:1), followed by vortex‐mixed for 5 min, and centrifuged for 0.5 min at 4000 rpm, 4 °C. Next, a 100 µL portion of supernatant was transferred to another clean 96‐well plate and diluted with 100 µL of water, vortex‐mixed for 5 min and centrifuged for 10 min at 4000 rpm, 4 °C, then the sample was injected for LC‐MS/MS analysis. All samples were quantified using an LC‐MS/MS‐AR Triple Quad 5500+ (SCIEX, USA) and the ExionLC liquid phase system. The mobile phase was 0.1% formic acid‐water/ACN with gradient elute at a flow rate of 0.8 mL mi^−1n (total time 2.20 min), and the detection wavelength was 225 nm. All blood samples were centrifuged using an Eppendorf 5424R centrifuge and quantified using an LC‐MS/MS‐AR Triple Quad 5500+ (SCIEX, USA). The pharmacokinetic parameters were calculated by WinNolin 8.2 software.

## Cc1cncc(C(=O)N2C[C@H]3CC[C@@H](C2)N3[C@H](c2cccc(F)c2)c2cn(CCc3ccsc3)nn2)c1 [Compound C5N17B]
iv, 2 mg/kg, i.v. 2 mg kg^−1, male ICR mice, n = 3, read-out: AUC0‐∞, i.v.
  AUC: 65.9 ± 14.9 ng·h/mL
iv, 2 mg/kg, i.v. 2 mg kg^−1, male ICR mice, n = 3, read-out: CL, i.v. (converted)
  clearance: 524 mL/min/kg
iv, 2 mg/kg, i.v. 2 mg kg^−1, male ICR mice, n = 3, read-out: Cmax, i.v.
  Cmax: 237 ± 53.6 ng/mL
iv, 2 mg/kg, i.v. 2 mg kg^−1, male ICR mice, n = 3, read-out: MRT0‐t, i.v.
  MRT: 5.81 ± 894 min
iv, 2 mg/kg, i.v. 2 mg kg^−1, male ICR mice, n = 3, read-out: MRT0‐∞, i.v.
  MRT: 6.96 ± 0.391 min
iv, 2 mg/kg, i.v. 2 mg kg^−1, male ICR mice, n = 3, read-out: Tmax, i.v.
  Tmax: 4.98 min
iv, 2 mg/kg, i.v. 2 mg kg^−1, male ICR mice, n = 3, read-out: t1/2, i.v. (converted)
  half-life: 6.6 min
oral, 10 mg kg^−1, p.o. 10 mg kg^−1 vs i.v. 2 mg kg^−1, male ICR mice, read-out: F (oral bioavailability)
  bioavailability: 13%
oral, 10 mg/kg, PO 10 mg/kg (10MPK), 5 min, mean of mice 4#-6#, read-out: Plasma concentration, Mean
  concentration at 5 min: 40.6 ng/mL
oral, 10 mg/kg, PO 10 mg/kg (10MPK), 15 min, mouse plasma, individual mice 4-6, read-out: Plasma concentration (Calculated Concentration)
  concentration at 15 min: 18 ng/mL
oral, 10 mg/kg, PO 10 mg/kg (10MPK), 30 min, sample marked "re", individual mouse, read-out: Plasma concentration (Calculated Concentration), re-analysis
  concentration at 30 min: 4.52 ng/mL
oral, 10 mg/kg, PO 10 mg/kg (10MPK), 1 hr, samples marked "re", individual mice, read-out: Plasma concentration (Calculated Concentration), re-analysis
  concentration at 1 hr: 7.4 ng/mL
oral, 10 mg/kg, PO 10 mg/kg (10MPK), 2 hr, sample marked "re", individual mouse, read-out: Plasma concentration (Calculated Concentration), re-analysis
  concentration at 2 hr: 15.7 ng/mL
oral, 10 mg/kg, PO 10 mg/kg (10MPK), 4 hr, mouse plasma, individual mice 4-6, read-out: Plasma concentration (Calculated Concentration)
  concentration at 4 h: 5.85 ng/mL
oral, 10 mg/kg, PO 10 mg/kg (10MPK), 6 hr, mouse plasma, individual mice 4-6, read-out: Plasma concentration (Calculated Concentration)
  concentration at 6 h: 2.52 ng/mL
po, 10 mg/kg, PO 10 mg/kg (10MPK), individual mice 4#-6#, read-out: Tmax
  Tmax: 5 min
po, 10 mg/kg, PO 10 mg/kg (10MPK), mean of mice 4#-6#, read-out: T1/2, Mean (converted)
  half-life: 213 min
po, 10 mg/kg, PO 10 mg/kg (10MPK), mean of mice 4#-6#, read-out: Tmax, Mean
  Tmax: 5 min
po, 10 mg/kg, PO 10 mg/kg, 0.50 h, mean of mice 4#-6#, read-out: plasma concentration, Mean
  concentration at 0.5 h: 8.28 ng/mL
po, 10 mg/kg, PO 10 mg/kg, 1 h, mean of mice 4#-6#
  concentration at 1 h: 7.2 ng/mL
po, 10 mg/kg, PO 10 mg/kg, 2 h, mean of mice 4#-6#
  concentration at 2 h: 10.5 ng/mL
po, 10 mg/kg, PO 10 mg/kg, 4 h, individual mice 4#-6#, read-out: plasma concentration
  concentration at 4 h: 5.85 ng/mL
po, 10 mg/kg, PO 10 mg/kg, 4 h, mean of mice 4#-6#, read-out: plasma concentration, Mean
  concentration at 4 h: 5.98 ng/mL
po, 10 mg/kg, PO 10 mg/kg, 6 h, individual mice 4#-6#, read-out: plasma concentration
  concentration at 6 h: 2.52 ng/mL
po, 10 mg/kg, PO 10 mg/kg, 6 h, mean (only 5# quantifiable), read-out: plasma concentration, Mean
  concentration at 6 h: 2.52 ng/mL
po, 10 mg/kg, PO 10 mg/kg, individual mice 4#-6#, read-out: AUC0-t
  AUC(0-t): 30.4 ng·h/mL
po, 10 mg/kg, PO 10 mg/kg, individual mice 4#-6#, read-out: AUC0-∞
  AUC(0-inf): 59.6 ng·h/mL
po, 10 mg/kg, PO 10 mg/kg, individual mice 4#-6#, read-out: F
  bioavailability: 9.56%
po, 10 mg/kg, PO 10 mg/kg, individual mice 4#-6#, read-out: MRT0-t
  MRT last: 97.2 min
po, 10 mg/kg, PO 10 mg/kg, individual mice 4-6, read-out: AUCINF_obs
  AUC(0-inf): 59.6 ng·h/mL
po, 10 mg/kg, PO 10 mg/kg, individual mice 4-6, read-out: AUCINF_pred
  AUC(0-inf): 55 ng·h/mL
po, 10 mg/kg, PO 10 mg/kg, individual mice 4-6, read-out: AUCall
  AUC: 30.4 ng·h/mL
po, 10 mg/kg, PO 10 mg/kg, individual mice 4-6, read-out: AUClast
  AUC(0-t): 30.4 ng·h/mL
po, 10 mg/kg, PO 10 mg/kg, individual mice 4-6, read-out: Cl_F_obs (converted)
  CL/F: 2800 mL/min/kg
po, 10 mg/kg, PO 10 mg/kg, individual mice 4-6, read-out: MRTlast
  MRT last: 97.3 min
po, 10 mg/kg, PO 10 mg/kg, individual mice 4-6, read-out: Tmax
  Tmax: 5 min
po, 10 mg/kg, PO 10 mg/kg, mean of mice 4#-6#, read-out: AUC0-t, Mean
  AUC(0-t): 41.3 ng·h/mL
po, 10 mg/kg, PO 10 mg/kg, mean of mice 4#-6#, read-out: AUC0-∞, Mean
  AUC(0-inf): 71.9 ng·h/mL
po, 10 mg/kg, PO 10 mg/kg, mean of mice 4#-6#, read-out: Cmax, Mean
  Cmax: 40.6 ng/mL
po, 10 mg/kg, PO 10 mg/kg, mean of mice 4#-6#, read-out: MRT0-t, Mean
  MRT last: 107 min
po, 10 mg/kg, PO 10 mg/kg, mean of mice 4#-6#, read-out: MRT0-∞, Mean
  MRT inf: 300 min
po, 10 mg/kg, p.o. 10 mg kg^−1, male ICR mice, n = 3, read-out: AUC0‐t, p.o.
  AUC: 41.3 ± 9.5 ng·h/mL
po, 10 mg/kg, p.o. 10 mg kg^−1, male ICR mice, n = 3, read-out: AUC0‐∞, p.o.
  AUC: 71.9 ± 26 ng·h/mL
po, 10 mg/kg, p.o. 10 mg kg^−1, male ICR mice, n = 3, read-out: Cmax, p.o.
  Cmax: 40.6 ± 24.1 ng/mL
po, 10 mg/kg, p.o. 10 mg kg^−1, male ICR mice, n = 3, read-out: MRT0‐t, p.o.
  MRT: 107 ± 8.7 min
po, 10 mg/kg, p.o. 10 mg kg^−1, male ICR mice, n = 3, read-out: MRT0‐∞, p.o.
  MRT: 300 ± 108 min
po, 10 mg/kg, p.o. 10 mg kg^−1, male ICR mice, n = 3, read-out: Tmax, p.o.
  Tmax: 4.8 min
po, 10 mg/kg, p.o. 10 mg kg^−1, male ICR mice, n = 3, read-out: t1/2, p.o. (converted)
  half-life: 213 ± 72 min
po, 10 mg/kg, p.o. 10 mg kg^−1, male ICR mice, read-out: Cmax, p.o.
  Cmax: 78.6 nM
